One assay has as its target T1, G2019S LRRK2 (Homo sapiens, UniProt Q5S007, G2019S).
T1 construct: expressed in transfected cells; host or cells: HEK293 (ATCC CRL-1573)
The assay is described as follows: LRRK2 degradation HiBit assay, G2019S LRRK2 tagged with a HiBit tag expressed in HEK293 cells. Format: cell-based. The note with it: 24 hours compound incubation; for Dmax: HEK293, HEK293 cells; for DC50: HEK293 cells. The protocol:
The assay measures the degradation of wildtype and G2019S LRRK2 tagged with a HiBit tag on the C-terminus of the protein that was expressed from a mammalian expression vector, driven by the ubiquitin promoter in HEK293 cells. Each compound dose-response was repeated on three separate days, on three separate plates each day.
(§1) Plasmid Preparation. Transfection mixes were assembled as follows and incubated for 30 minutes at room temperature. In a 15 mL tube, 5.25 mL Opti-MEM (no additions) was mixed with 17 μL Firefly Luciferase plasmid at 1 μg/μL and 158 μL WT plasmid DNA at 1 μg/μL (175 μg total DNA) were mixed by flicking. In a new 15 mL tube, 5.25 mL OptiMEM was mixed with 17 μL Firefly Luciferase plasmid at 1 μg/μL and 158 μL G2019S plasmid DNA at 1 μg/μL (175 μg total DNA) were mixed by flicking. X-tremeGene HP was mixed thoroughly using a vortex. Next, 175 μL was added to each tube and flicked to mix. Both tubes were left to incubate for 30 minutes at room temperature.
While the transfection mixes were incubating, HEK293 cells acquired from ATCC (ATCC CRL-1573) were harvested with trypsin. Once cells are detached, the cells were resuspended in 12 mL OptiMEM+5% FBS and transferred to a 50 mL tube. The cells were mixed well and counted. Using OptiMEM+5% FBS, the cells were diluted in two 250 mL conical tubes at 0.71×10^6 cells/mL in 70 mL. One tube was labeled “WT” and the other “G2019S”. The WT and G2019S transfection mixes were added dropwise to the corresponding 250 mL tubes. The tubes were mixed first by pipetting then by swirling. The tubes were incubated at room temperature for at least 5 minutes.
(§2) Each tube was swirled before dispensing and after every three plates. Seventy microliters of cells were dispensed with WT or G2019S DNA to seven plates each. Three plates of each were tested with compound plate one (preparation described below) and three plates of each were tested with compound plate two (preparation described below). The first plate from each set served as a “prime” plate and was not used to test compounds. Each plate was incubated in the hood for 10 minutes before placing in the 37° C. incubator for 24 hours.
(§3) Preparation of Compound and Assay Plates. Two compound plates were made using 96 well polypropylene plates. Compounds were made up at 10 mM and were diluted to 1 mM in 30 μL. Each dose response curve included a well of DMSO, as a negative control and for normalization, and a well of 0.5 μM of Exemplary Compound 4 as a positive control. In addition to seven test compounds, each plate also included a dose response of Exemplary Compound 4. The compound plates were spun down along at 1200 rpm for 2 minutes.
(§4) The two compound plates were then mixed and 2 μL was diluted in intermediate plates having 248 μL of Opti-Mem in each well. Next, 10 μL diluted compounds from the intermediate plates were added to each test plate (three WT and three G2019S plates per compound plate for a total of 12 assay plates). The plates were incubated for 24 hours at 37° C.
(§5) All assay plates and all Nano-Glo Dual-Luciferase Reporter Assay System components (except for the DLR substrate) were equilibrated to room temperature. Next, the luciferase buffer was mixed with the lyophilized amber bottle until fully dissolved, and 75 μL of the luciferase mixture was added to each well of each assay plate. The assay plates were incubated for 10 minutes at room temperature with shaking for at least 5 minutes, and then read on a plate reader.
(§6) Developing Plates and Analyzing Data. One milliliter of DLR substrate and 1 mL LgBiT Protein were added to the Stop and Glo buffer, and 75 μL of the mixture was added to each well of each plate. Optically clear seals were added to each plate and each plate was incubated for 20 minutes with shaking for at least 10 minutes, and then read on a plate reader. […]
(In general: The HiBiT peptide binds its large partner to form an active luciferase.)

A further assay has as its target T2, wildtype LRRK2 (Homo sapiens, UniProt Q5S007).
T2 construct: endogenous in cells; host or cells: HEK293 with HiBit knocked in at the 3' end of the endogenous LRRK2 gene, stably expressing firefly luciferase
The assay is described as follows: LRRK2 degradation HiBit assay, wildtype LRRK2 tagged with a HiBit tag in HEK293 cells. Format: cell-based. The note with it: 24 hours compound incubation; for DC50: read-out: *WT DC50; for Dmax: read-out: ** WT Dmax (%). As for the experimental part:
The assay measures the degradation of wildtype and G2019S LRRK2 tagged with a HiBit tag on the C-terminus of the protein that was expressed from a mammalian expression vector, driven by the ubiquitin promoter in HEK293 cells. Each compound dose-response was repeated on two separate days, on three separate plates each day.
as §1
While the transfection mixes were incubating, HEK293 cells (acquired from ATCC; ATCC CRL-1573) were harvested with trypsin. Once cells are detached, the cells were resuspended in 12 mL OptiMEM+5% FBS and transferred to a 50 mL tube. The cells were mixed well and counted. Using OptiMEM+5% FBS, the cells were diluted in two 250 mL conical tubes at 0.71×10^6 cells/mL in 70 mL. One tube was labeled “WT” and the other “G2019S”. The WT and G2019S transfection mixes were added dropwise to the corresponding 250 mL tubes. The tubes were mixed first by pipetting then by swirling. The tubes were incubated at room temperature for at least 5 minutes.
as §2, §3, §4, §5, §6

T2 sequence (Q5S007 whole entry): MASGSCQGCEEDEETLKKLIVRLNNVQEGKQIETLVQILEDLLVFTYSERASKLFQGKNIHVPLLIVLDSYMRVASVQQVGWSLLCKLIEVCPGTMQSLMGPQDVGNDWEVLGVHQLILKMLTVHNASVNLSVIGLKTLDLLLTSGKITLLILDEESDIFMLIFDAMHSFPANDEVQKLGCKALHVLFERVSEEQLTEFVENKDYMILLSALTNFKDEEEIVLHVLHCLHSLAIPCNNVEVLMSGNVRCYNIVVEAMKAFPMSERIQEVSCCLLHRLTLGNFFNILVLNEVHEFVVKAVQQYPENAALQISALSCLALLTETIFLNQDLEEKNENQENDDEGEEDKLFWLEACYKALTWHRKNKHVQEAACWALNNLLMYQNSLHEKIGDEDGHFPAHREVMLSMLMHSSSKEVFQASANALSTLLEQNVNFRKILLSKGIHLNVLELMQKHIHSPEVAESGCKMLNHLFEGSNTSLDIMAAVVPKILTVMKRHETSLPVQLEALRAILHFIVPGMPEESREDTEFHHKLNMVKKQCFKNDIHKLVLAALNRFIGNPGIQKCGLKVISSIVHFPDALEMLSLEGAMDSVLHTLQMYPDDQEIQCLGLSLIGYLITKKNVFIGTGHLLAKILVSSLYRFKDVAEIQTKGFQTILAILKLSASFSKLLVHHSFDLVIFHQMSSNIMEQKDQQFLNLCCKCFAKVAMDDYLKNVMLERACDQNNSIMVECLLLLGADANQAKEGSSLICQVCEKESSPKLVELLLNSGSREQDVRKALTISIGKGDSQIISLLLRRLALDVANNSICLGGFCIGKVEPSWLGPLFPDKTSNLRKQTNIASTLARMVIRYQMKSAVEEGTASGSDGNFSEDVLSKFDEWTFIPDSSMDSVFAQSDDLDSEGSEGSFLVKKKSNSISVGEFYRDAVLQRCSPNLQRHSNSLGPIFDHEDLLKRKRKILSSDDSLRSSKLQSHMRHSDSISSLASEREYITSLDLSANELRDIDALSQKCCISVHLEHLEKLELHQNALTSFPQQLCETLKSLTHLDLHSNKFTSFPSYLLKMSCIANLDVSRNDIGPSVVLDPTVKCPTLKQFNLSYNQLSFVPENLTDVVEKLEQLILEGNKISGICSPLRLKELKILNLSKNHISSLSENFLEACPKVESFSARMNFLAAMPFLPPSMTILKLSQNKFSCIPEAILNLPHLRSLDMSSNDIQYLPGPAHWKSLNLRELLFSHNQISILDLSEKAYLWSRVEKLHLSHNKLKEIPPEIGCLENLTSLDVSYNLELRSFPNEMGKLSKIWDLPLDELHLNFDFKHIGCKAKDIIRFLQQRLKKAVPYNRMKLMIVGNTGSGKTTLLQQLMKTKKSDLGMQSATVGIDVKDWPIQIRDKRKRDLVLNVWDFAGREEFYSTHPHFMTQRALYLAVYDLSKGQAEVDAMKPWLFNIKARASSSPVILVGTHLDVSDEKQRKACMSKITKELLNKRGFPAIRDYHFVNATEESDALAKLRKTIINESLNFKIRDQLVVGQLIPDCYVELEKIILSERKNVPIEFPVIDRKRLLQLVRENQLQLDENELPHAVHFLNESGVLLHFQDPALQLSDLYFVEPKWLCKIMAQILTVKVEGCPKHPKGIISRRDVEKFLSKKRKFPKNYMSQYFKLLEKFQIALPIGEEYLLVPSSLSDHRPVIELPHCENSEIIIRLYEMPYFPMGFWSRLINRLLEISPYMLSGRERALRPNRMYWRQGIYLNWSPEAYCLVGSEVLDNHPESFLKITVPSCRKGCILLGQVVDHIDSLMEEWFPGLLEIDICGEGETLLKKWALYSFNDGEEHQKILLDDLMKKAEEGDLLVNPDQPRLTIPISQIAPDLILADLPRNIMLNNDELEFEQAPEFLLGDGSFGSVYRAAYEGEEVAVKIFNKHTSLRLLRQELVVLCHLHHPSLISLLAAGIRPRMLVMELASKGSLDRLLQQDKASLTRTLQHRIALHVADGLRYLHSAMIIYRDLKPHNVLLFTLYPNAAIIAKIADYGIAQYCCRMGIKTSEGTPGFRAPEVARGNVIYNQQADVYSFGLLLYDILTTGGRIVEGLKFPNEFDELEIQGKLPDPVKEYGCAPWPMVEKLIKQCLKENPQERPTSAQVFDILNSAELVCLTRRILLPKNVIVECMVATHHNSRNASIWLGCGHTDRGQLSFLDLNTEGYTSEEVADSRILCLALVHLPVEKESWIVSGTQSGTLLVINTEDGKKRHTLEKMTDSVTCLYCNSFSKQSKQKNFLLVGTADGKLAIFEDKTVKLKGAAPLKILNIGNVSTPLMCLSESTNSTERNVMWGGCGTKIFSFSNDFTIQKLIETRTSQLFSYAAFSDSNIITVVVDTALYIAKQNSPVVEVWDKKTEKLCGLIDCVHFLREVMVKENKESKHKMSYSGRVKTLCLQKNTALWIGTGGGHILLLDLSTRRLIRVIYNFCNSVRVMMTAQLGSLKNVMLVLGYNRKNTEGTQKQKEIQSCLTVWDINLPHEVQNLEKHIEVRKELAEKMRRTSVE
T1 sequence (Q5S007 whole entry G2019S): as the sequence (Q5S007 whole entry) above, with G2019S counted along it

`CC1=C(C(=O)Nc2ccc3[nH]nc(-c4ccnc(N5CCN(CC6CCN(CC7CCN(c8ccc9c(c8)C(=O)N(C8CCC(=O)NC8=O)C9=O)CC7)CC6)[C@@H](C)C5)c4)c3c2)C(C)(C)n2nnnc2N1C` (stereo partly drawn) [compound 34, N-(3-{2-[(3S)-4-{[1-({1-[2-(2,6-dioxopiperidin-3-yl)-1,3-dioxo-2,3-dihydro-1H-isoindol-5-yl]piperidin-4-yl}methyl)piperidin-4-yl]methyl}-3-methylpiperazin-1-yl]pyridin-4-yl}-1H-indazol-5-yl)-4,5,7,7-tetramethyl-4H,7H-[1,2,3,4]tetrazolo[1,5-a]pyrimidine-6-carboxamide] had a maximal degradation (Dmax) at G2019S LRRK2 of under 50%. The DC50 is 10 to 50 nM on G2019S LRRK2 and at least 100 nM at wildtype LRRK2.

On G2019S LRRK2, `CC1=C(C(=O)Nc2ccc3[nH]nc(-c4ccnc(N5CCN(CCCN6CCN(c7ccc8c(c7)C(=O)N(C7CCC(=O)NC7=O)C8=O)CC6)CC5)c4)c3c2)[C@@H](C)n2nnnc2N1C` (stereo partly drawn) [compound 15, (7R)-N-(3-(2-(4-(3-(4-(2-(2,6-dioxopiperidin-3-yl)-1,3-dioxoisoindolin-5-yl)piperazin-1-yl)propyl)piperazin-1-yl)pyridin-4-yl)-1H-indazol-5-yl)-4,5,7-trimethyl-4,7-dihydrotetrazolo[1,5-a]pyrimidine-6-carboxamide] came in with a Dmax of 50 to 70% and a DC50 of 10 to 50 nM. On wildtype LRRK2, the greatest degradation seen (Dmax) lay in the range of 50 to 70% and the 50% degradation concentration (DC50) was at least 100 nM.

Turning to `CC1=C(C(=O)Nc2ccc3[nH]nc(-c4ccnc(N5C[C@@H](C)N(CC6CCN(CC7CCN(c8ccc9c(c8)C(=O)N(C8CCC(=O)NC8=O)C9=O)CC7)CC6)[C@@H](C)C5)c4)c3c2)Cn2nnnc2N1C` (stereo partly drawn) [compound 1, N-(3-(2-((3S,5R)-4-((1-((1-(2-(2,6-dioxopiperidin-3-yl)-1,3-dioxoisoindolin-5-yl)piperidin-4-yl)methyl)piperidin-4-yl)methyl)-3,5-dimethylpiperazin-1-yl)pyridin-4-yl)-1H-indazol-5-yl)-4,5-dimethyl-4,7-dihydrotetrazolo[1,5-a]pyrimidine-6-carboxamide], at G2019S LRRK2, the maximal degradation (Dmax) was 50 to 70% and the half-maximal degradation concentration (DC50) is under 10 nM. On wildtype LRRK2, the Dmax was 50 to 70% and the DC50 fell in the range of 10 to 50 nM.

At G2019S LRRK2, `CC1=C(C(=O)Nc2ccc3[nH]nc(-c4ccnc(N5CCN(CC6CCN(CC7CCN(c8ccc9c(c8)C(=O)N(C8CCC(=O)NC8=O)C9=O)CC7)CC6)CC5)c4)c3c2)[C@H](C)n2nnnc2N1C` (stereo partly drawn) [compound 12, (7S)-N-(3-(2-(4-((1-((1-(2-(2,6-dioxopiperidin-3-yl)-1,3-dioxoisoindolin-5-yl)piperidin-4-yl)methyl)piperidin-4-yl)methyl)piperazin-1-yl)pyridin-4-yl)-1H-indazol-5-yl)-4,5,7-trimethyl-4,7-dihydrotetrazolo[1,5-a]pyrimidine-6-carboxamide] registered a Dmax of under 50% and a 50% degradation concentration (DC50) of at least 100 nM. The half-maximal degradation concentration (DC50) on wildtype LRRK2 was at least 100 nM.

Consider `CC1=C(C(=O)Nc2ccc3[nH]nc(-c4ccnc(N5CCN(CCC6CCN(CC7CCN(c8ccc9c(c8)C(=O)N(C8CCC(=O)NC8=O)C9=O)CC7)CC6)CC5)c4)c3c2)[C@@H](C)n2nnnc2N1C` (stereo partly drawn) [compound 14, (7R)-N-(3-(2-(4-(2-(1-((1-(2-(2,6-dioxopiperidin-3-yl)-1,3-dioxoisoindolin-5-yl)piperidin-4-yl)methyl)piperidin-4-yl)ethyl)piperazin-1-yl)pyridin-4-yl)-1H-indazol-5-yl)-4,5,7-trimethyl-4,7-dihydrotetrazolo[1,5-a]pyrimidine-6-carboxamide], for which, on G2019S LRRK2, the Dmax is under 50% and the DC50 lay in the range of 50 to 100 nM. Moreover, at wildtype LRRK2, the Dmax fell in the range of 50 to 70% and the DC50 is at least 100 nM.

Regarding `CC1=C(C(=O)Nc2ccc3[nH]nc(-c4ccnc(N5C[C@@H](C)N(CCOCCN6CCN(c7ccc8c(c7)C(=O)N(C7CCC(=O)NC7=O)C8=O)CC6)[C@@H](C)C5)c4)c3c2)Cn2nnnc2N1C` (stereo partly drawn) [compound 3, N-(3-(2-((3R,5S)-4-(2-(2-(4-(2-(2,6-dioxopiperidin-3-yl)-1,3-dioxoisoindolin-5-yl)piperazin-1-yl)ethoxy)ethyl)-3,5-dimethylpiperazin-1-yl)pyridin-4-yl)-1H-indazol-5-yl)-4,5-dimethyl-4,7-dihydrotetrazolo[1,5-a]pyrimidine-6-carboxamide], the DC50 on G2019S LRRK2 and on wildtype LRRK2 was at least 100 nM throughout.

In the case of `CC1=C(C(=O)Nc2ccc3[nH]nc(-c4ccnc(N5CCN(CC(F)(F)C6CCN(CC7CCN(c8ccc9c(c8)C(=O)N(C8CCC(=O)NC8=O)C9=O)CC7)CC6)CC5)c4)c3c2)[C@@H](C)n2nnnc2N1C` (stereo partly drawn) [compound 22, (7R)-N-(3-(2-(4-(2-(1-((1-(2-(2,6-dioxopiperidin-3-yl)-1,3-dioxoisoindolin-5-yl)piperidin-4-yl)methyl)piperidin-4-yl)-2,2-difluoroethyl)piperazin-1-yl)pyridin-4-yl)-1H-indazol-5-yl)-4,5,7-trimethyl-4,7-dihydrotetrazolo[1,5-a]pyrimidine-6-carboxamide], the greatest degradation seen (Dmax) on G2019S LRRK2 and at wildtype LRRK2 was 50 to 70% each time. In addition, the half-maximal degradation concentration (DC50) on G2019S LRRK2 and at wildtype LRRK2 was under 10 nM throughout.

Regarding `CC1=C(C(=O)Nc2ccc3[nH]nc(-c4ccnc(N5CCN(CCN6CCC(CN7CCN(c8ccc9c(c8)C(=O)N(C8CCC(=O)NC8=O)C9=O)CC7)CC6)CC5)c4)c3c2)[C@H](C)n2nnnc2N1C` (stereo partly drawn) [compound 27, (7S)-N-{3-[2-(4-{2-[4-({4-[2-(2,6-dioxopiperidin-3-yl)-1,3-dioxo-2,3-dihydro-1H-isoindol-5-yl]piperazin-1-yl}methyl)piperidin-1-yl]ethyl}piperazin-1-yl)pyridin-4-yl]-1H-indazol-5-yl}-4,5,7-trimethyl-4H,7H-[1,2,3,4]tetrazolo[1,5-a]pyrimidine-6-carboxamide], the Dmax at G2019S LRRK2 lay within 50 to 70%. Further, the DC50 at G2019S LRRK2 and at wildtype LRRK2 was at least 100 nM each time.

As to `CC1=C(C(=O)Nc2ccc3[nH]nc(-c4ccnc(N5CCN(CC6CCN(CC7CCN(c8ccc9c(c8)C(=O)N(C8CCC(=O)NC8=O)C9=O)CC7)CC6)CC5)c4)c3c2)[C@@H](C)n2nnnc2N1C` (stereo partly drawn) [compound 11, (7R)-N-(3-(2-(4-((1-((1-(2-(2,6-dioxopiperidin-3-yl)-1,3-dioxoisoindolin-5-yl)piperidin-4-yl)methyl)piperidin-4-yl)methyl)piperazin-1-yl)pyridin-4-yl)-1H-indazol-5-yl)-4,5,7-trimethyl-4,7-dihydrotetrazolo[1,5-a]pyrimidine-6-carboxamide], on G2019S LRRK2, the maximal degradation (Dmax) was under 50% and the DC50 lay in the range of 10 to 50 nM. In addition, on wildtype LRRK2, the Dmax is under 50% and the DC50 is 50 to 100 nM.

As usually defined, the Dmax is the greatest extent of degradation seen. The DC50 is the concentration giving 50% degradation.

(Values after US12473294B2, “Selective modulators of mutant LRRK2 proteolysis and associated methods of use” (Arvinas Operations, Inc., priority 2020, dated 2025).)
